Key:
JCV Mad-4 = test: Extracellular JCV load in JCV-infected COS-7 cells (qPCR); format: cell-based
Experimental: COS-7 supernatants were harvested 5 […] post start of treatment with indicated CMX001 concentrations. JCV load was measured by qPCR and input virus subtracted. DNA load in untreated cells (5.04×10 E+9 geq/ml) was set as 100%. Replication of JCV is shown as percentage of untreated cells to determine the IC-50 and IC-90. […] Supernatants from CMX001-treated and untreated JCV-infected COS-7 cells were harvested at indicated timepoints after infection and JCV load measured by qPCR. Data are presented as JCV load in log geq/ml. COS-7 or astrocyte cells were infected at a confluence of 60-70% with JCV(Mad-4) at an estimated TCID50 of 0.2. After 2 h incubation at 37° C., supernatants were replaced with fresh medium without or with increasing concentration CMX001. […] JCV loads were quantified after DNA extraction from 100 ul cell culture supernatants and the Corbett X-tractor Gene and the Corbett VX reagents (Qiagen, Hombrechtikon, Switzerland). The real-time PCR protocol for detection of JCV DNA samples targets the JCV large T coding sequence and has been described elsewhere (5). To investigate the effect of CMX001 on JCV progeny, increasing concentrations of CMX001 were added at 2 h p.i. and supernatants harvested at 5 d.p.i. It was observed that CMX001 reduced the extracellular JCV load in a concentration dependent manner (FIG. 12).

RPTECs = test: Inspection of RPTECs by phase contrast microscopy; format: cell-based, human; conditions: 3 day exposure to CMX001 0.31 μM
COS-7 cells = test: Metabolic activity of uninfected COS-7 cells (WST-1 assay); format: cell-based
Experimental: Metabolic activity was examined as WST-1 cleavage. Medium with indicated CMX001 concentrations was added to COS-7 cells and absorbance measured 72 h post seeding. Absorbance for untreated cells was set as 100%. The metabolic activity was monitored by the colorimetric WST-1 assay (Roche) of the mitochondrial dehydrogenases in viable cells. COS-7 cells were seeded in 96 well plates and CMX001 was added at indicated concentrations. The WST-1 cleavage product was measured at 450 nm (sample) and at 650 nm (background). WST-1 plus medium alone served as blank.

EBV = test: CMX001 in human patients with EBV-associated PTLD; format: in vivo; conditions: for EBV viral load: heart transplant recipient
From the text: The first patient is a patient with a history of sickle cell anemia developed EBV-associated intracranial post-transplant lymphoproliferative disorder (PTLD). EBV was positive in the plasma (7 Dec. and 14 Dec. 2010) and brain biopsies were consistent with PTLD. In early December, the patient presented with a 3 day history of persistent headache, nausea, vomiting, and diarrhea. […] The patient was admitted to PICU. High intracranial pressure, repetitive seizures associated with apnea led to intubation and emergency request for CMX001. The use of CMX001 in this patient with EBV-associated PTLD is ongoing since […].
The second patient was a heart transplant recipient with EBV-associated PTLD. The patient acquired a primary EBV infection post-operatively. […] The clinical condition continued to destabilize with what was presumed to be EBV-associated encephalitis with EBV detected in the CSF, clinical and EEG-correlated seizure activity and decreased responsiveness and changes in mental status. At the time of request for CMX001, the patient was on mechanical ventilation, had evidence of both pneumonia and PTLD of their lungs, evidence of seizure activity with clinical criteria for encephalopathy being present. The patient received their first dose of CMX001, 20 mg (approximately 3.3 mg/kg) on 3 Mar. 2010, and their second dose on 7 Mar. […] The patient continued to show evidence of progressive neurologic injury. The parents withdrew support on the day following their second dose of CMX001.

CCCCCCCCCCCCCCCCOCCCOP(=O)(O)CO[C@H](CO)Cn1ccc(N)nc1=O [CMX001]
change in the JCV load over 7 days (JCV Mad-4; 5 nM CMX001, COS-7): less than 1 log
IC50 (JCV Mad-4; 120 h, COS-7, day 5 p.i., viral input subtracted, read-out: inhibitory concentration IC-50 (extracellular JCV load)): 150 nM
IC90 (JCV Mad-4; 120 h, COS-7, day 5 p.i., viral input subtracted, read-out: inhibitory concentration IC-90 (extracellular JCV load)): 600 nM
reduction of JCV viral load (JCV Mad-4; CMX001 0.15 μM, day 5 p.i.): > 50%
IC-90 concentration lower than concentrations reported for CDV inhibition of JCV (JCV Mad-4; CMX001 0.6 μM, COS-7): 2 orders of magnitude
viral load at 7 d.p.i. relative to untreated cells at 3 d.p.i. (JCV Mad-4; CMX001 5 uM, COS-7): 91%
signs of impaired viability (RPTECs): did not reveal any signs of impaired viability
loss of metabolic activity (COS-7 cells; CMX001 0.6 μM, COS-7): 17%
IC50 (COS-7 cells; Chlorocebus aethiops, uninfected COS-7 cells): ~5000 nM
EBV viral load (EBV; 3 Mar. 2010 (day of first dose, 20 mg)): 267,338 copies/mL
EBV viral load (EBV; 7 Mar. 2010 (day of second dose)): 47,427 copies/mL
EBV in the plasma (EBV; patient on CMX001): remains negative
tolerability (EBV; patient, 4 mg/kg twice weekly): tolerated CMX001 well
clinical outcome (EBV; patient, intracranial PTLD, 4 mg/kg twice weekly): clinical improvement of their signs and symptoms of disease as well as stabilization if not reduction of their intracranial mass
